Measured values: US12180187B2, “1-phenyl-5-azinylpyrazolyl-3-oxyalkyl acids and their use for controlling unwanted plant growth” (BAYER AKTIENGESELLSCHAFT, priority 2019, dated 2024)

Experiments:
[1] = system: ALOMY; assay: Pre-emergence action against ALOMY, 1280 g/ha; assay type: in vivo, Alopecurus myosuroides; details: visual scoring after about 3 weeks vs untreated controls, 100% = plants have died, 0% = like control plants
Summary of the method: (§1)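 Greenhouse pre-emergence test on sown seeds in sandy loam; soil-surface spray of formulated compound with 0.5% additive at 600 L/ha water. Scored visually, % vs untreated, after about 3 weeks.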

[2] = system: DIGSA; assay: Pre-emergence action against DIGSA, 1280 g/ha; assay type: in vivo, Digitaria sanguinalis; details: visual scoring after about 3 weeks vs untreated controls, 100% = plants have died, 0% = like control plants
Summary of the method: as §1

[3] = system: ECHCG; assay: Pre-emergence action against ECHCG, 1280 g/ha; assay type: in vivo, Echinochloa crus-galli; details: visual scoring after about 3 weeks vs untreated controls, 100% = plants have died, 0% = like control plants
Summary of the method: as §1

[4] = system: POAAN; assay: Pre-emergence action against POAAN, 1280 g/ha; assay type: in vivo, Poa annua; details: visual scoring after about 3 weeks vs untreated controls, 100% = plants have died, 0% = like control plants
Summary of the method: as §1

[5] = system: SETVI; assay: Pre-emergence action against SETVI, 1280 g/ha; assay type: in vivo, Setaria viridis; details: visual scoring after about 3 weeks vs untreated controls, 100% = plants have died, 0% = like control plants
Summary of the method: as §1

[6] = system: ABUTH; assay: Pre-emergence action against ABUTH, 1280 g/ha; assay type: in vivo, Abutilon theophrasti; details: scored visually after about 3 weeks vs untreated controls (100% = plants have died)
Source text: 1. Pre-Emergence Herbicidal Effect and Crop Plant Compatibility a) Seeds of mono- and dicotyledonous weed plants are placed in plastic pots in sandy loam soil (doubly sown with one species each of mono- or dicotyledonous weed plants per pot) and covered with soil. The compounds of the invention, formulated in the form of wettable powders (WP) or as emulsion concentrates (EC), are then applied onto the surface of the covering soil as aqueous suspension or emulsion with addition of 0.5% additive at a water application rate equivalent to 600 litres per hectare. After the treatment, the pots are placed in a greenhouse and kept under good growth conditions for the trial plants. After about 3 weeks, the effect of the preparations is scored visually in comparison with untreated controls as percentages. For example, 100% activity=the plants have died, 0% activity=like control plants. 1. Pre-Emergence Effectiveness Tables 1 to 12 below show the effects of selected compounds of the general formula (I) according to Tables 1 and 2 on various harmful plants and at an application rate corresponding to 1280 g/ha, which were obtained by the experimental procedure mentioned above.

[7] = system: AMARE; assay: Pre-emergence action against AMARE, 1280 g/ha; assay type: in vivo, Amaranthus retroflexus; details: scored visually after about 3 weeks vs untreated controls (100% = plants have died)
Summary of the method: as §1

[8] = system: MATIN; assay: Pre-emergence action against MATIN, 1280 g/ha; assay type: in vivo, Tripleurospermum inodorum (Matricaria inodora); details: scored visually after about 3 weeks vs untreated controls (100% = plants have died)
Summary of the method: as §1

[9] = system: STEME; assay: Pre-emergence action against STEME, 1280 g/ha; assay type: in vivo, Stellaria media; details: scored visually after about 3 weeks vs untreated controls (100% = plants have died)
Summary of the method: as §1

[10] = system: VERPE; assay: Pre-emergence action against VERPE, 1280 g/ha; assay type: in vivo, Veronica persica; details: scored visually after about 3 weeks vs untreated controls (100% = plants have died)
Summary of the method: as §1

[11] = system: ECHCG; assay: Post-emergence action against ECHCG, 1.28 kg/ha; assay type: in vivo, Echinochloa crus-galli; details: dosage 1280 g/ha, visual rating about 3 weeks after treatment vs untreated controls
Summary of the method: (§2)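 Visual rating against untreated plants about 3 weeks after spraying gives % activity, where 0% means like controls and 100% means plants died. Plants were treated post-emergence at the one-leaf stage with compound formulated as wettable powder or emulsion concentrate, applied at 600 L water/ha plus 0.5% additive.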

[12] = system: POAAN; assay: Post-emergence action against POAAN, 1.28 kg/ha; assay type: in vivo, Poa annua; details: dosage 1280 g/ha, visual rating about 3 weeks after treatment vs untreated controls
Summary of the method: as §2

[13] = system: VERPE; assay: Post-emergence action against VERPE, 1.28 kg/ha; assay type: in vivo, Veronica persica; details: dosage 1280 g/ha, visual rating about 3 weeks after treatment vs untreated controls (100% = plants died)
Summary of the method: as §2

[14] = system: LOLRI; assay: Pre-emergence action against LOLRI, 1280 g/ha; assay type: in vivo, Lolium rigidum; details: visual scoring after about 3 weeks vs untreated controls, 100% = plants have died, 0% = like control plants
Summary of the method: as §1

[15] = system: ALOMY; assay: Post-emergence action against ALOMY, 1.28 kg/ha; assay type: in vivo, Alopecurus myosuroides; details: dosage 1280 g/ha, visual rating about 3 weeks after treatment vs untreated controls
Summary of the method: as §2

[16] = system: DIGSA; assay: Post-emergence action against DIGSA, 1.28 kg/ha; assay type: in vivo, Digitaria sanguinalis; details: dosage 1280 g/ha, visual rating about 3 weeks after treatment vs untreated controls
Summary of the method: as §2

[17] = system: LOLRI; assay: Post-emergence action against LOLRI, 1.28 kg/ha; assay type: in vivo, Lolium rigidum; details: dosage 1280 g/ha, visual rating about 3 weeks after treatment vs untreated controls
Summary of the method: as §2

[18] = system: SETVI; assay: Post-emergence action against SETVI, 1.28 kg/ha; assay type: in vivo, Setaria viridis; details: dosage 1280 g/ha, visual rating about 3 weeks after treatment vs untreated controls
Summary of the method: as §2

[19] = system: ABUTH; assay: Post-emergence action against ABUTH, 1.28 kg/ha; assay type: in vivo, Abutilon theophrasti; details: dosage 1280 g/ha, visual rating about 3 weeks after treatment vs untreated controls (100% = plants died)
Summary of the method: as §2

[20] = system: AMARE; assay: Post-emergence action against AMARE, 1.28 kg/ha; assay type: in vivo, Amaranthus retroflexus; details: dosage 1280 g/ha, visual rating about 3 weeks after treatment vs untreated controls (100% = plants died)
Summary of the method: as §2

[21] = system: KCHSC; assay: Post-emergence action against KCHSC, 1.28 kg/ha; assay type: in vivo, Bassia scoparia; details: dosage 1280 g/ha, visual rating about 3 weeks after treatment vs untreated controls (100% = plants died)
Summary of the method: as §2

[22] = system: MATIN; assay: Post-emergence action against MATIN, 1.28 kg/ha; assay type: in vivo, Tripleurospermum inodorum (Matricaria inodora); details: dosage 1280 g/ha, visual rating about 3 weeks after treatment vs untreated controls (100% = plants died)
Summary of the method: as §2

[23] = system: STEME; assay: Post-emergence action against STEME, 1.28 kg/ha; assay type: in vivo, Stellaria media; details: dosage 1280 g/ha, visual rating about 3 weeks after treatment vs untreated controls (100% = plants died)
Summary of the method: as §2

Row | SMILES | Pre-emergence action against ALOMY [1] [%] | Pre-emergence action against DIGSA [2] [%] | Pre-emergence action against ECHCG [3] [%] | Pre-emergence action against POAAN [4] [%] | Pre-emergence action against SETVI [5] [%] | Pre-emergence action against ABUTH [6] [%] | Pre-emergence action against AMARE [7] [%] | Pre-emergence action against MATIN [8] [%] | Pre-emergence action against STEME [9] [%] | Pre-emergence action against VERPE [10] [%] | Post-emergence action against ECHCG [11] [%] | Post-emergence action against POAAN [12] [%] | Post-emergence action against VERPE [13] [%] | Pre-emergence action against LOLRI [14] [%] | Post-emergence action against ALOMY [15] [%] | Post-emergence action against DIGSA [16] [%] | Post-emergence action against SETVI [18] [%] | Post-emergence action against KCHSC [21] [%] | Post-emergence action against MATIN [22] [%] | Post-emergence action against STEME [23] [%] | other results
1 | CN(C)C(=O)COc1nn(-c2ccccc2F)c(-c2ccc(F)nc2)c1Br [Example X-027] | 100 | 100 | 100 | 100 | 100 | 90 | 100 | 90 | 90 | 100 | 90 | 100 | 100 |  |  |  |  |  |  |  | 
2 | COC(=O)COc1nn(-c2c(F)cccc2F)c(-c2ccc(F)nc2)c1C#N [VII-061] | 100 | 100 | 100 | 100 | 100 | 90 | 100 | 100 | 100 | 100 | 100 | 100 | 100 | 100 | 100 | 100 | 90 | 90 | 100 | 100 | Post-emergence action against LOLRI [17]: 100%; Post-emergence action against ABUTH [19]: 90%; Post-emergence action against AMARE [20]: 90%
3 | CC(Oc1nn(-c2ccccc2F)c(-c2ccc(F)nc2)c1C(F)(F)F)C(=O)O (centres unmarked) [VII-106] | 100 | 100 | 100 | 100 | 100 | 90 | 100 | 90 | 100 | 100 | 90 | 100 | 100 | 100 | 100 | 100 | 90 | 100 | 90 | 100 | 
